Laboratory results reported in patent US11596633B2, “SHP2 inhibitor compositions and methods for treating cancer” (Revolution Medicines, Inc., priority 2017, dated 2023).

Key:
p-ERK1/2 in H1792 cells = experiment: p-ERK AlphaLisa SureFire; type: cell-based; details: H1792 cells (KRAS G12C)
Description: (§1) Cells were plated at ˜20×10^3 cells per well and following overnight incubation were washed with serum-free media. Cells were then incubated for one hour with increasing concentrations of the test article in serum-free media containing 0.2% BSA prior to termination of the assay and measurement of pERK levels in cellular lysates by AlphaLisa SureFire Ultra kit conducted according to the manufacturer's instructions.

p-ERK1/2 in H358 cells = experiment: p-ERK AlphaLisa SureFire; type: cell-based, human; details: H358 cells (KRAS G12C)
Description: as §1

p-ERK1/2 in Calu-1 cells = experiment: p-ERK AlphaLisa SureFire; type: cell-based, human; details: Calu-1 cells (KRAS G12C)
Description: as §1

MIA-Pa-Ca-2 xenograft = experiment: MIA-Pa-Ca-2 xenograft, Compound C with Abemaciclib (Example 8); type: in vivo, mice; details: Compound C 30 mg/kg PO, Abemaciclib 50 mg/kg
From the text: Similar methods were used to evaluate efficacy of test articles in the pancreatic MiaPaca-2 KRas^G12C xenograft model. Balb/c nude mice (6-8 weeks old) were implanted with […] MiaPaca-2 tumor cells in 50% Matrigel subcutaneously in the flank. […] Administration of test articles and study design are as described above for H358 xenograft model.
(§2) The effects on tumor cell growth in vivo of another SHP2 inhibitor (Compound C) as a monotherapy or as a combination therapy with various Ras pathway inhibitors were evaluated in the NSCLC H358 KRas^G12C and MIA-Pa-Ca-2 xenograft models as described above in Example 1, except that the test article and vehicle formulation was (2% HPMC E-50, 0.5% Tween 80 in 50 mM Sodium Citrate Buffer, pH 4.0)+/− the inhibitor compound(s). […] Test compounds or vehicle control were administered by oral gavage daily. The study endpoint was defined as a mean tumor volume of 2000 mm^3 in the control group or 22 days post-dosing, whichever came first. Mean tumor volume data are reported for all animals that remained on study.

H358 KRas G12C xenograft = type: in vivo; details: daily PO, Compound C 10 mg/kg, Trametinib 1 mg/kg, Cobimetinib 2.5 mg/kg, Ulixertinib 100 mg/kg
Description: The positive control, paclitaxel (30 mg/kg iv) in 5% ethanol, 5% cremophor EL, in 5% dextrose in deionized water was administered once every five days. Trametinib (1 mg/kg PO in 0.5% Methylcellulose+0.5% Tween 80) was administered by oral gavage daily. The study endpoint was defined as a mean tumor volume of 2000 mm^3 in the control group or 22 days, whichever came first. Mean tumor volume data are reported for all animals that remained on study.
as §2

NCI-H358 xenograft = experiment: NCI-H358 xenograft, alone and with trametinib (Example 7); details: trametinib 1 mg/kg
Description: The effects of a SHP2 inhibitor on tumor cell growth in vivo were evaluated in the NSCLC H358 xenograft model using female athymic nude mice (6-8 weeks old). Mice were implanted with H358 tumor cells in 50% Matrigel (1×10^7 cells/animal) subcutaneously in the flank. Once tumors reached an average size of 200 mm^3 mice were randomized to treatment groups and administration of test article or vehicle (50 mM acetate buffer, pH 4.6 containing 10% captisol, unless otherwise indicated) initiated. […] Body weight and tumor volume (using calipers) was measured every other day until study endpoints.

[1] = tested on: RAS-GTP in NCI-H1838 cells; experiment: RAS-GTP pulldown (Raf-RBD); type: cell-based; details: NCI-H1838 (NF1 LOF), MEK inhibition by trametinib
Description: (§3) To determine the effects of small molecules on levels of activated RAS-GTPase, cell lines of interest were cultured under standard 2D culture conditions. Cells were seeded and following overnight incubation incubated at 37° C. with vehicle (DMSO) or test article(s). After an appropriate incubation period, cells were washed and cell lysis buffer added to prepare a cell lysate. The levels of Ras-GTP in the lysates were determined using affinity purification of a Raf-RBD (Ras binding domain of Raf)/GTP-Ras complex. In one approach, the Pierce Active Ras Pulldown and Detection Kit was used. Briefly, clarified lysates (500 μg total protein, quantified by BCA) were mixed with glutathione resin, which had been preincubated with GST-Raf-RBD. The mixture was vortexed and incubated at 4° C. for 1 hour with gentle rocking. The resin was washed three times with lysis buffer and bound Ras-GTP eluted by addition of 2× reducing sample buffer. Eluted proteins were separated by SDS-PAGE using a 4-15% Tris-glycine gel (BioRad). Proteins were transferred to a nitrocellulose membrane for western blot using an anti-Ras antibody (Thermofisher, 1:200) and a Licor IRDye-800 anti-mouse secondary antibody (1:20,000). The Licor Odyssey CLx was used for visualization.
as §3, with “resin” for “resin,”

[2] = tested on: phosphorylated RTKs in MDA-MB-231 cells; experiment: Phospho-RTK array; type: cell-based; details: MDA-MB-231 (KRAS G13D), 24 hours; selumetinib 5 μM, Compound A 1 and 5 μM
Description: To determine the effects of test article(s) on levels of phosphorylated RTKs, MDA-MB231 cells were seeded in 6-well plates and incubated overnight in full growth medium. Cells were treated for 24 hours with selumetinib (5 μM) or Compound A (1 and 5 μM) or left untreated (DMSO control). Lysates were generated using the lysis buffer provided with the kit (Phospho-RTK Array; R&D systems) with inclusion of a protease inhibitor cocktail. To control for protein concentration, total protein levels were quantified using BCA reagent kit. The levels of phospho-RTK were determined according to the manufacturer's instructions.

C=CC(=O)N1CC(N2CCN(C(=O)CNc3cc(C4(C)CC4)c(Cl)cc3O)CC2)C1 [ARS-853, reference compound]
inhibition of p-ERK1/2 levels (p-ERK1/2 in H1792 cells): sensitive
inhibition of p-ERK1/2 levels (p-ERK1/2 in H358 cells): sensitive
inhibition of p-ERK1/2 levels (p-ERK1/2 in Calu-1 cells): sensitive

CCN1CCN(Cc2ccc(Nc3ncc(F)c(-c4cc(F)c5nc(C)n(C(C)C)c5c4)n3)nc2)CC1 [Abemaciclib]
tumor growth as a single agent compared to vehicle control (MIA-Pa-Ca-2 xenograft): significant tumor growth inhibition

O=C(c1ccc(F)c(F)c1Nc1ccc(I)cc1F)N1CC(O)([C@@H]2CCCCN2)C1 [Cobimetinib]
tumor growth as a single agent compared to vehicle control (H358 KRas G12C xenograft): significant tumor growth inhibition

CC(=O)Nc1cccc(-n2c(=O)n(C3CC3)c(=O)c3c(Nc4ccc(I)cc4F)n(C)c(=O)c(C)c32)c1 [Trametinib, reference compound]
tumor growth as compared to the vehicle control (NCI-H358 xenograft; single agent, Compound B 10 and 30 mg/kg): significant tumor growth inhibition
tumor growth inhibition, TGI (NCI-H358 xenograft): 79%
tumor growth as a single agent compared to vehicle control (H358 KRas G12C xenograft): significant tumor growth inhibition
feedback-driven RAS-GTP accumulation [1]: caused feedback-driven RAS-GTP accumulation

CC(C)Nc1cc(-c2c[nH]c(C(=O)N[C@H](CO)c3cccc(Cl)c3)c2)c(Cl)cn1 [Ulixertinib]
tumor growth as a single agent compared to vehicle control (H358 KRas G12C xenograft): significant tumor growth inhibition

Cn1cnc2c(F)c(Nc3ccc(Br)cc3Cl)c(C(=O)NOCCO)cc21 [selumetinib, Selumetinib, reference compound]
feedback-driven p-RTK hyperactivation [2]: caused feedback-driven p-RTK hyperactivation
